Assay results as given in patent US20100298141A1, “SUBSTITUTED PYRIDINE N-OXIDE HERBICIDES” (E. I. DU PONT DE NEMOURS AND COMPANY, priority 2007, published 2010).

Assays:
giant foxtail [1] = assay: Test A pre-/postemergence greenhouse test; format: in vivo, Setaria faberi; conditions: for Plant response rating, Foxtail, Giant: 0 to 100 scale where 0 is no effect and 100 is complete control; for Foxtail, Giant plant response rating: 0 to 100 scale
Method in brief: (§1)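 Visual injury ratings against untreated controls, taken roughly ten days after treatment in greenhouse. Plants were sprayed postemergence at one- to two-leaf stage (2–10 cm tall); at the same time, seeded loam/sand soil received a directed preemergence spray. Formulation: non-phytotoxic solvent mixture with surfactant.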

velvetleaf = assay: Test A pre-/postemergence greenhouse test; format: in vivo, Abutilon theophrasti; conditions: for Plant response rating, Velvetleaf: 0 to 100 scale where 0 is no effect and 100 is complete control; for Velvetleaf plant response rating: 0 to 100 scale
Method in brief: as §1

wheat = assay: Test A pre-/postemergence greenhouse test; format: in vivo, Triticum aestivum; conditions: for Plant response rating, Wheat: 0 to 100 scale where 0 is no effect and 100 is complete control; for Wheat plant response rating: 0 to 100 scale
Method in brief: as §1

corn = assay: Test A pre-/postemergence greenhouse test; format: in vivo, Zea mays; conditions: for Plant response rating, Corn: 0 to 100 scale where 0 is no effect and 100 is complete control; for Corn plant response rating: 0 to 100 scale
Method in brief: as §1

downy brome = assay: Test C pre-/postemergence test; format: in vivo, Bromus tectorum
Method in brief: (§2)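 Test chemicals were formulated with surfactant in a non-phytotoxic solvent and sprayed both on freshly planted seeds (preemergence) and on 1- to 4-leaf plants of 2–18 cm (postemergence). Flooded-paddy pots received compound directly into 3 cm of standing water, maintained for the test.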

catchweed bedstraw = assay: Test C pre-/postemergence test; format: in vivo, Galium aparine
Method in brief: as §2

bermudagrass = assay: Test C pre-/postemergence test; format: in vivo, Cynodon dactylon
Method in brief: as §2

Surinam grass = assay: Test C pre-/postemergence test; format: in vivo, Brachiaria decumbens
Method in brief: as §2

crabgrass = assay: Test C pre-/postemergence test; format: in vivo, Digitaria sanguinalis
Method in brief: as §2

giant foxtail [2] = assay: Test C pre-/postemergence test; format: in vivo, Setaria faberii
Method in brief: as §2

johnsongrass = assay: Test C pre-/postemergence test; format: in vivo, Sorghum halepense
Method in brief: as §2

lambsquarters = assay: Test C pre-/postemergence test; format: in vivo, Chenopodium album
Method in brief: as §2

morningglory = assay: Test C pre-/postemergence test; format: in vivo, Ipomoea coccinea
Method in brief: as §2

pigweed = assay: Test C pre-/postemergence test; format: in vivo, Amaranthus retroflexus
Method in brief: as §2

soybean = assay: Test C pre-/postemergence test; format: in vivo, Glycine max
Method in brief: as §2

rice = assay: Test C flooded paddy test; format: in vivo, Oryza sativa; conditions: Flood
Method in brief: (§3)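 Compound was added to standing water 3 cm above soil, flood maintained, and plants held in a greenhouse before visual scoring against controls at 13 to 15 days.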

barnyardgrass = assay: Test C flooded paddy test; format: in vivo, Echinochloa crus-galli; conditions: Flood
Method in brief: as §3

[3] = Postemergence, 500 g ai/ha, 0 is no effect, 100 is complete control
[4] = Preemergence, 125 g ai/ha, 0 no effect, 100 complete control
[5] = 62 g ai/ha, Preemergence, scale 0 to 100
[6] = 125 g ai/ha, preemergence, scale 0 (no effect) to 100 (complete control)
[7] = Preemergence, 31 g ai/ha, scale 0 to 100 (0 no effect, 100 complete control)
[8] = preemergence, 250 g ai/ha, scale 0 (no effect) to 100 (complete control)
[9] = 62 g ai/ha, scale 0 to 100 (0 no effect, 100 complete control)
[10] = 250 g ai/ha, scale 0 to 100, 0 no effect, 100 complete control, 13 to 15 days

## CCc1cc[n+]([O-])c([S+]([O-])Cc2c(C(F)(F)F)nn(C)c2OCC(F)(F)F)c1 (stereo not drawn) [Compound 59]
Giant foxtail [1]; Postemergence, 125 g ai/ha
  Plant response rating, Foxtail, Giant: 60
Giant foxtail [1]; [3]
  Foxtail, Giant plant response rating: 90
Giant foxtail [1]; [4]
  Foxtail, Giant plant response rating: 100
Giant foxtail [1]; Preemergence, 500 g ai/ha
  Plant response rating, Foxtail, Giant: 100
velvetleaf; Postemergence, 125 g ai/ha
  Plant response rating, Velvetleaf: 60
velvetleaf; [3]
  Velvetleaf plant response rating: 80
velvetleaf; [4]
  Velvetleaf plant response rating: 60
velvetleaf; Preemergence, 500 g ai/ha
  Plant response rating, Velvetleaf: 100
wheat; Postemergence, 125 g ai/ha
  Plant response rating, Wheat: 60
wheat; [3]
  Wheat plant response rating: 70
wheat; [4]
  Wheat plant response rating: 60
wheat; Preemergence, 500 g ai/ha
  Plant response rating, Wheat: 90
corn; Postemergence, 125 g ai/ha
  Plant response rating, Corn: 50
corn; [3]
  Corn plant response rating: 70
corn; [4]
  Corn plant response rating: 20
corn; Preemergence, 500 g ai/ha
  Plant response rating, Corn: 90
Downy brome; [5]
  Bromegrass, Downy plant response rating: 40
Downy brome; [6]
  Bromegrass, Downy plant response rating: 90
Downy brome; [7]
  Plant response rating, Bromegrass, Downy: 20
Downy brome; [8]
  Bromegrass, Downy plant response rating: 100
Catchweed bedstraw; [5]
  Galium plant response rating: 100
Catchweed bedstraw; [6]
  Galium plant response rating: 100
Catchweed bedstraw; [7]
  Plant response rating, Galium: 0
Catchweed bedstraw; [8]
  Galium plant response rating: 100
bermudagrass; 62 g ai/ha, Preemergence, scale 0 to 100 (0 no effect, 100 complete control)
  Bermudagrass plant response rating: 100
bermudagrass; [6]
  Bermudagrass plant response rating: 100
bermudagrass; [7]
  Plant response rating, Bermudagrass: 70
bermudagrass; [8]
  Bermudagrass plant response rating: 100
Surinam grass; [5]
  Surinam Grass plant response rating: 80
Surinam grass; [6]
  Surinam Grass plant response rating: 100
Surinam grass; [7]
  Plant response rating, Surinam Grass: 40
Surinam grass; [8]
  Surinam Grass plant response rating: 100
crabgrass; [5]
  Crabgrass, Large plant response rating: 80
crabgrass; [6]
  Crabgrass, Large plant response rating: 100
crabgrass; [7]
  Plant response rating, Crabgrass, Large: 70
crabgrass; [8]
  Crabgrass, Large plant response rating: 100
Giant foxtail [2]; [5]
  Foxtail, Giant plant response rating: 55
Giant foxtail [2]; [6]
  Foxtail, Giant plant response rating: 98
Giant foxtail [2]; [7]
  Plant response rating, Foxtail, Giant: 35
Giant foxtail [2]; [8]
  Foxtail, Giant plant response rating: 100
johnsongrass; [5]
  Johnsongrass plant response rating: 60
johnsongrass; [6]
  Johnsongrass plant response rating: 100
johnsongrass; [7]
  Plant response rating, Johnsongrass: 45
johnsongrass; [8]
  Johnsongrass plant response rating: 100
lambsquarters; [5]
  Lambsquarters plant response rating: 100
lambsquarters; [6]
  Lambsquarters plant response rating: 100
lambsquarters; [7]
  Plant response rating, Lambsquarters: 80
lambsquarters; [8]
  Lambsquarters plant response rating: 100
morningglory; [5]
  Morningglory plant response rating: 100
morningglory; [6]
  Morningglory plant response rating: 100
morningglory; [7]
  Plant response rating, Morningglory: 50
morningglory; [8]
  Morningglory plant response rating: 100
pigweed; [5]
  Pigweed plant response rating: 100
pigweed; [6]
  Pigweed plant response rating: 100
pigweed; [7]
  Plant response rating, Pigweed: 0
pigweed; [8]
  Pigweed plant response rating: 100
soybean; [5]
  Soybean plant response rating: 10
soybean; [6]
  Soybean plant response rating: 100
soybean; [8]
  Soybean plant response rating: 100
rice; [9]
  Plant response rating, Rice: 10
rice; [10]
  Plant response rating, Rice: 70
barnyardgrass; [9]
  Plant response rating, Barnyardgrass: 30
barnyardgrass; [10]
  Plant response rating, Barnyardgrass: 60
